PubChem BioAssay (NCI)
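Exposure lasted 48 hours, with cells grown in 96-well plates and compounds tested at five concentrations. Definition used: TGI = concentration required for complete inhibition of growth.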

What was measured:
Experiment in all cases: growth of human tumour cells (NCI), 48 h
SK-MEL-28 melanoma = test system: SK-MEL-28 melanoma
CAKI-1 renal = test system: CAKI-1 renal
TK-10 renal = test system: TK-10 renal
SN12C renal = test system: SN12C renal
SW-620 colon = test system: SW-620 colon
OVCAR-5 ovarian = test system: OVCAR-5 ovarian
CCRF-CEM leukemia = test system: CCRF-CEM leukemia
NCI-H23 lung = test system: NCI-H23 lung
PC-3 prostate = test system: PC-3 prostate
SF-539 CNS = test system: SF-539 CNS
MOLT-4 leukemia = test system: MOLT-4 leukemia
NCI-H226 lung = test system: NCI-H226 lung
A549 NSCLC = test system: A549 NSCLC
DU-145 prostate = test system: DU-145 prostate
SF-295 CNS = test system: SF-295 CNS
OVCAR-4 ovarian = test system: OVCAR-4 ovarian
BT-549 breast = test system: BT-549 breast
MDA-N = test system: MDA-N
SR leukemia = test system: SR leukemia
HCT-116 colon = test system: HCT-116 colon
NCI/ADR-RES ovarian = test system: NCI/ADR-RES ovarian
U251 CNS = test system: U251 CNS
MCF7 breast = test system: MCF7 breast
RPMI-8226 leukemia = test system: RPMI-8226 leukemia
UACC-62 melanoma = test system: UACC-62 melanoma
MDA-MB-435 = test system: MDA-MB-435
SNB-19 CNS = test system: SNB-19 CNS
EKVX NSCLC = test system: EKVX NSCLC
KM12 colon = test system: KM12 colon
LOX IMVI melanoma = test system: LOX IMVI melanoma
HT29 colon = test system: HT29 colon
HL-60(TB) leukemia = test system: HL-60(TB) leukemia
COLO 205 colon = test system: COLO 205 colon
ACHN renal = test system: ACHN renal
SNB-75 CNS = test system: SNB-75 CNS
UACC-257 melanoma = test system: UACC-257 melanoma
OVCAR-3 ovarian = test system: OVCAR-3 ovarian
HOP-62 NSCLC = test system: HOP-62 NSCLC
MDA-MB-231 breast = test system: MDA-MB-231 breast
NCI-H460 lung = test system: NCI-H460 lung
M14 melanoma = test system: M14 melanoma
OVCAR-8 ovarian = test system: OVCAR-8 ovarian
K-562 leukemia = test system: K-562 leukemia
HCC-2998 colon = test system: HCC-2998 colon
IGROV1 ovarian = test system: IGROV1 ovarian
HS 578T breast = test system: HS 578T breast
T-47D breast = test system: T-47D breast
RXF 393 renal = test system: RXF 393 renal
UO-31 renal = test system: UO-31 renal
SK-MEL-2 melanoma = test system: SK-MEL-2 melanoma
SF-268 CNS = test system: SF-268 CNS
SK-OV-3 ovarian = test system: SK-OV-3 ovarian
HOP-92 NSCLC = test system: HOP-92 NSCLC
SK-MEL-5 melanoma = test system: SK-MEL-5 melanoma

## COc1cc(CCCl)c(CC2=NCCc3cc(OC)c(OC)cc32)cc1OC
SK-MEL-28 melanoma
  TGI: > 100 µM
CAKI-1 renal
  TGI: > 100 µM
TK-10 renal
  TGI: > 100 µM
SN12C renal
  TGI: > 100 µM
SW-620 colon
  TGI: > 100 µM
OVCAR-5 ovarian
  TGI: > 100 µM
CCRF-CEM leukemia
  TGI: > 100 µM
NCI-H23 lung
  TGI: > 100 µM
PC-3 prostate
  TGI: > 100 µM
SF-539 CNS
  TGI: 57.7 µM
MOLT-4 leukemia
  TGI: > 100 µM
NCI-H226 lung
  TGI: > 100 µM
A549 NSCLC
  TGI: > 100 µM
DU-145 prostate
  TGI: > 100 µM
SF-295 CNS
  TGI: > 100 µM
OVCAR-4 ovarian
  TGI: > 100 µM
BT-549 breast
  TGI: > 100 µM
MDA-N
  TGI: > 100 µM
SR leukemia
  TGI: > 100 µM
HCT-116 colon
  TGI: > 100 µM
NCI/ADR-RES ovarian
  TGI: > 100 µM
U251 CNS
  TGI: > 100 µM
MCF7 breast
  TGI: > 100 µM
RPMI-8226 leukemia
  TGI: > 100 µM
UACC-62 melanoma
  TGI: > 100 µM
MDA-MB-435
  TGI: > 100 µM
SNB-19 CNS
  TGI: > 100 µM
EKVX NSCLC
  TGI: > 100 µM
KM12 colon
  TGI: > 100 µM
LOX IMVI melanoma
  TGI: > 100 µM
HT29 colon
  TGI: > 100 µM
HL-60(TB) leukemia
  TGI: > 100 µM
COLO 205 colon
  TGI: > 100 µM
ACHN renal
  TGI: > 100 µM
SNB-75 CNS
  TGI: > 100 µM
UACC-257 melanoma
  TGI: > 100 µM
OVCAR-3 ovarian
  TGI: > 100 µM
HOP-62 NSCLC
  TGI: > 100 µM
MDA-MB-231 breast
  TGI: > 100 µM
NCI-H460 lung
  TGI: > 100 µM
M14 melanoma
  TGI: > 100 µM
OVCAR-8 ovarian
  TGI: > 100 µM
K-562 leukemia
  TGI: > 100 µM
HCC-2998 colon
  TGI: > 100 µM
IGROV1 ovarian
  TGI: > 100 µM
HS 578T breast
  TGI: 80.7 µM
T-47D breast
  TGI: > 100 µM
RXF 393 renal
  TGI: > 100 µM
UO-31 renal
  TGI: > 100 µM
SK-MEL-2 melanoma
  TGI: > 100 µM
SF-268 CNS
  TGI: > 100 µM
SK-OV-3 ovarian
  TGI: > 100 µM
HOP-92 NSCLC
  TGI: > 100 µM
SK-MEL-5 melanoma
  TGI: > 100 µM
